These compounds were tested on Thoracic aorta (assay: Vasorelaxing effect in endothelium-intact Wistar rat thoracic aorta ring assessed as inhibition of phenylephrine-stimulated contraction).
Format: functional, tissue-based
In the case of CCCC[C@H](CC(=O)O)c1c2c(c(O)c3c1O[C@H](C)[C@H](C)C3=O)C=CC(C)(C)O2, the IC50 is reported as 12.1 µM and the inhibition is reported as “Dose-dependent effect”.
With CCC[C@H](CC(=O)O)c1c2c(c(O)c3c1O[C@H](C)[C@@H](C)C3=O)C=CC(C)(C)O2 the IC50 was 13.8 µM and the inhibition was “Dose-dependent effect”.
For CC[C@H](CC(=O)O)c1c2c(c(O)c3c1O[C@H](C)[C@H](C)C3=O)C=CC(C)(C)O2, the IC50 was 6.07 µM and the inhibition was “Dose-dependent effect”.
With CCC[C@H](CC(=O)O)c1c2c(c(O)c3c1O[C@H](C)[C@H](C)C3=O)C=CC(C)(C)O2 the IC50 was 18.9 µM and the inhibition was “Dose-dependent effect”.
With C[C@H](CC(=O)O)c1c2c(c(O)c3c1O[C@H](C)[C@H](C)C3=O)C=CC(C)(C)O2 the IC50 was 10.3 µM and the inhibition was “Dose-dependent effect”.
With CC[C@H](CC(=O)O)c1c2c(c(O)c3c1O[C@H](C)[C@@H](C)C3=O)C=CC(C)(C)O2 the IC50 was 10.4 µM and the inhibition was “Dose-dependent effect”.
